Patent US6706740B2, “Fungicidal heterocyclic aromatic amides and their compositions, methods of use and preparation” (Dow AgroSciences LLC, priority 1999, dated 2004)
Read-outs that look alike come from different tables or passages of the source.

What was measured:
[1] = tested on: Magnaporthe grisea (Pyricularia oryzae—PYRIOR); test: microbe, parasite or virus in culture; assay type: cell-based; settings: Pyricularia oryzae, read-out: PYRIOR in vitro Growth Inhibition
[2] = tested on: Rhizoctonia solani (RHIZSO); test: microbe, parasite or virus in culture; assay type: cell-based; settings: Rhizoctonia solani, read-out: RHIZSO in vitro Growth Inhibition
[3] = tested on: Mycosphaerella graminicola (Septoria tritici—SEPTTR); test: In vitro fungal growth inhibition, Mycosphaerella graminicola (SEPTTR); assay type: cell-based; settings: Zymoseptoria tritici, read-out: SEPTTR in vitro Growth Inhibition
[4] = tested on: Stagonospora nodorum (Leptosphaeria nodorum—LEPTNO); test: In vitro fungal growth inhibition, Stagonospora nodorum (LEPTNO); assay type: cell-based; settings: Leptosphaeria, read-out: LEPTNO in vitro Growth Inhibition
Ustilago maydis (USTIMA) = test: microbe, parasite or virus in culture; assay type: cell-based; settings: Mycosarcoma maydis, read-out: USTIMA in vitro Growth Inhibition
[5] = tested on: Phytophthora infestans (PHYTIN); test: microbe, parasite or virus in culture; assay type: cell-based; settings: Phytophthora infestans, read-out: PHYTIN in vitro Growth Inhibition
[6] = tested on: Phytophthora infestans—PHYTIN; test: whole plant or invertebrate; assay type: in vivo; settings: Phytophthora, in Solanum lycopersicum, 24 h, read-out: PHYTIN in vivo 1 Day Protectant
[7] = tested on: Puccinia recondita—PUCCRT; test: Brown Rust of Wheat, in vivo whole plant, 24 Hour Protectant; settings: for pest or weed control at 100 ppm: Puccinia, read-out: PUCCRT in vivo 1 Day Protectant
Erysiphe graminis—ERYSGT = test: Powdery Mildew of Wheat, in vivo whole plant, 24 Hour Protectant; settings: Erysiphe, read-out: ERYSGT in vivo 1 Day Protectant
Septoria tritici—SEPTTR = test: Leaf Blotch of Wheat, in vivo whole plant, 24 Hour Protectant; settings: for pest or weed control at 100 ppm: Zymoseptoria tritici, 24 h, read-out: SEPTTR in vivo 1 Day Protectant
[8] = tested on: Leptosphaeria nodorum—LEPTNO; test: Glume Blotch of Wheat, in vivo whole plant, 24 Hour Protectant; settings: for pest or weed control at 100 ppm: Leptosphaeria, read-out: LEPTNO in vivo 1 Day Protectant
[9] = 100 ppm spray, wheat, 24 hour protectant, % control of fungal infection vs untreated plants
[10] = wheat plants sprayed at 100 ppm, inoculated after 24 hours, control of fungal infection vs untreated plants
[11] = 100 ppm spray, 24 hour protectant, wheat, control of fungal infection vs untreated plants
[12] = 100 ppm spray, wheat, 24 hour protectant, control of fungal infection vs untreated plants

Structure (SMILES)	inhibition at 25 ppm [1] [%]	inhibition at 25 ppm [2] [%]	inhibition at 25 ppm ([3]; 25 ppm in growth medium) [%]	inhibition at 25 ppm ([4]; 25 ppm in growth medium) [%]	inhibition at 25 ppm (Ustilago maydis (USTIMA)) [%]	inhibition at 25 ppm [5] [%]	pest or weed control at 100 ppm [6] [%]	melting point [°C]	inhibition at 25 ppm ([3]; 25 ppm in the growth medium) [%]	inhibition at 25 ppm ([4]; 25 ppm in the growth medium) [%]	pest or weed control at 100 ppm [7, 10] [%]	pest or weed control at 100 ppm (Erysiphe graminis—ERYSGT; [10]) [%]	pest or weed control at 100 ppm (Septoria tritici—SEPTTR; [10]) [%]	pest or weed control at 100 ppm [8, 10] [%]	other results
COc1ccnc(C(=O)Nc2ccc(C(=O)Oc3cccc(C(F)(F)F)c3)cc2)c1OC(C)=O [Compound 715]	< 80	< 80	< 80	< 80	< 80	< 80	< 25	166 to 169							pest or weed control at 100 ppm [7, 9]: 25 to 74%; pest or weed control at 100 ppm (Erysiphe graminis—ERYSGT; [9]): < 25%; pest or weed control at 100 ppm (Septoria tritici—SEPTTR; [9]): < 25%; pest or weed control at 100 ppm [8, 9]: 25 to 74%
CCOc1ccnc(C(=O)Nc2ccc(Oc3cccc(C(F)(F)F)c3)cc2)c1O [Compound 476]	< 80	< 80			< 80	< 80	< 25	118 to 121	< 80	< 80	< 25	< 25	< 25	25 to 74	
Cc1ccc(C(=O)NC2CC(C)(C)CC(C)(C)C2)c(O)n1 [Compound 524]	< 80	< 80			< 80	< 80	< 25	307 to 308	< 80	< 80	< 25	< 25	25 to 74	< 25	
COc1ccnc(C(=O)N[C@H]2COC(=O)[C@H](Cc3ccccc3)[C@@H](OC(=O)C(C)C)[C@H](C)OC2=O)c1OC(=O)C1CC1 [Compound 601]	< 80	< 80	< 80	< 80	< 80	< 80	< 25	195 to 196							PUCCRT in vivo 1 Day Protectant [7, 9]: + +; pest or weed control at 100 ppm (Erysiphe graminis—ERYSGT; [9]): < 25%; SEPTTR in vivo 1 Day Protectant (Septoria tritici—SEPTTR; [9]): + +; LEPTNO in vivo 1 Day Protectant [8, 9]: + +
O=C(NCc1cccc(Cl)c1)c1ncccc1O [Compound 219]	> 80	> 80	> 80	> 80	> 80	> 80	< 25	65 to 67							pest or weed control at 100 ppm [7, 11]: < 25%; pest or weed control at 100 ppm (Erysiphe graminis—ERYSGT; [11]): < 25%; pest or weed control at 100 ppm (Septoria tritici—SEPTTR; [11]): < 25%; pest or weed control at 100 ppm [8, 11]: < 25%
CCOC(=O)c1cc(Oc2ccc(C(F)(F)F)cc2)ccc1NC(=O)c1nccc(OC)c1O [Compound 427]	< 80	< 80	< 80	< 80	< 80	< 80	< 25	145 to 147							pest or weed control at 100 ppm [7, 12]: 25 to 74%; pest or weed control at 100 ppm (Erysiphe graminis—ERYSGT; [12]): < 25%; pest or weed control at 100 ppm (Septoria tritici—SEPTTR; [12]): 25 to 74%; pest or weed control at 100 ppm [8, 12]: 25 to 74%
COc1ccnc(C(=O)N[C@H]2COC(=O)[C@H](Oc3ccccc3)[C@@H](OC(=O)C(C)C)[C@H](C)OC2=O)c1O [Compound 403]	< 80	< 80	> 80	> 80	< 80	< 80	< 25	194 to 195							pest or weed control at 100 ppm [7, 12]: 25 to 74%; pest or weed control at 100 ppm (Erysiphe graminis—ERYSGT; [12]): < 25%; pest or weed control at 100 ppm (Septoria tritici—SEPTTR; [12]): 25 to 74%; LEPTNO in vivo 1 Day Protectant [8, 12]: + +
CC(C)(C)C1CCC(NC(=O)c2cnccc2O)CC1 (stereo not drawn) [Compound 504]	< 80	< 80			< 80	< 80	< 25	70 to 78	< 80	> 80	< 25	< 25	< 25	25 to 74	
COc1cccc(CNC(=O)c2ncccc2O)c1OC [Compound 227]	< 80	< 80	< 80	< 80	< 80	> 80	< 25	78 to 79							pest or weed control at 100 ppm [7, 11]: < 25%; pest or weed control at 100 ppm (Erysiphe graminis—ERYSGT; [11]): < 25%; pest or weed control at 100 ppm (Septoria tritici—SEPTTR; [11]): < 25%; pest or weed control at 100 ppm [8, 11]: < 25%
Cc1ccc(C(=O)N[C@H]2COC(=O)[C@H](Cc3ccccc3)[C@@H](OC(=O)C(C)C)[C@H](C)OC2=O)c(O)n1 [Compound 525]	< 80	< 80			< 80	< 80	< 25	247 to 250	< 80	< 80	25 to 74	< 25	25 to 74		LEPTNO in vivo 1 Day Protectant [8, 10]: + +
